Results published in ChEMBL document CHEMBL1201862, “PubChem BioAssay data set” (2004).
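These data come from cells grown in 96-well plates and exposed to compound for 48 hours at five concentrations. GI50: concentration for 50% inhibition of growth.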 Activity calls are given as the source filed them. No stated cut-off is given here; in the data, active = GI50 up to about 1.1 µM and inactive = higher.

Assays:
Test in all cases: NCI-60 cell line screen, 48 h
MOLT-4 = system: MOLT-4
NCI-H522 = system: NCI-H522
786-0 = system: 786-0
CCRF-CEM = system: CCRF-CEM
DU-145 = system: DU-145
OVCAR-3 = system: OVCAR-3
EKVX = system: EKVX
RPMI-8226 = system: RPMI-8226
NCI/ADR-RES = system: NCI/ADR-RES
UACC-257 = system: UACC-257
T47D = system: T47D
HOP-92 = system: HOP-92
HCT-116 = system: HCT-116
SNB-19 = system: SNB-19
HCC 2998 = system: HCC 2998
HOP-62 = system: HOP-62
SR = system: SR
SF-268 = system: SF-268
HL-60 = system: HL-60
A498 = system: A498

Measured: GI50

COc1ccc2c(c1)-c1[nH]c3ccc(OC)cc3c1CC2
inactive: MOLT-4 11 µM | NCI-H522 4.55 µM | 786-0 17.5 µM | CCRF-CEM 14.3 µM | DU-145 17.1 µM | OVCAR-3 17.6 µM | EKVX 7.28 µM | RPMI-8226 15.6 µM | NCI/ADR-RES 11.4 µM | UACC-257 17.7 µM | T47D 8.05 µM | HOP-92 19.2 µM | HCT-116 17.1 µM | SNB-19 14.8 µM | HCC 2998 15.6 µM | HOP-62 16.3 µM | SR 13.6 µM | SF-268 14.1 µM

C=C(C)C1Cc2c(cc(OC)c3c(=O)c4cccc(O)c4oc23)O1 (centres undefined)
inactive: MOLT-4 > 100 µM | NCI-H522 16.6 µM | 786-0 18.9 µM | CCRF-CEM 74.6 µM | DU-145 45.8 µM | EKVX > 100 µM | NCI/ADR-RES 24.8 µM | UACC-257 33 µM | T47D 16.6 µM | HCT-116 24.8 µM | SNB-19 26.3 µM | HL-60 39.9 µM | HCC 2998 34.1 µM | HOP-62 18.6 µM | SR 36.1 µM | SF-268 20.4 µM

Oc1ccc(-c2nc(-c3cccnc3)c(-c3ccc(F)cc3)[nH]2)cc1
inactive: MOLT-4 10 µM | 786-0 22.9 µM | CCRF-CEM 10.7 µM | DU-145 24 µM | OVCAR-3 16.7 µM | EKVX 19.3 µM | RPMI-8226 10.2 µM | NCI/ADR-RES 19 µM | UACC-257 17.6 µM | T47D 17.4 µM | HCT-116 17.4 µM | SNB-19 25.2 µM | HL-60 15.8 µM | HCC 2998 19.8 µM | HOP-62 21.6 µM | SR 16.9 µM | SF-268 22.5 µM

COC(=O)c1ccc(/C=C2\Oc3cc(O)ccc3C2=O)cc1
inactive: MOLT-4 43.7 µM | NCI-H522 20 µM | 786-0 > 100 µM | CCRF-CEM 38.2 µM | DU-145 > 100 µM | OVCAR-3 53.3 µM | EKVX 49.2 µM | RPMI-8226 29.4 µM | NCI/ADR-RES > 100 µM | UACC-257 > 100 µM | T47D 54.3 µM | HCT-116 63.5 µM | SNB-19 69.8 µM | HL-60 44.2 µM | HCC 2998 > 100 µM | HOP-62 > 100 µM | SR 42.3 µM | SF-268 66.1 µM

NN/C(=N\c1ccc(Cl)cc1)NS(=O)(=O)c1ccc(S(=O)(=O)c2ccccc2)s1
inactive: MOLT-4 9.16 µM | 786-0 21.4 µM | DU-145 21.8 µM | OVCAR-3 20.6 µM | EKVX 11 µM | RPMI-8226 21.2 µM | NCI/ADR-RES 18.5 µM | UACC-257 18 µM | T47D 8.17 µM | HOP-92 18.6 µM | HCT-116 14.8 µM | SNB-19 38.3 µM | HL-60 24.2 µM | HOP-62 41.2 µM | A498 49.1 µM | SR 16 µM

CCOC(=O)c1ccc(NCC#CCN2CCCCC2)cc1
inactive: MOLT-4 > 100 µM | 786-0 > 100 µM | CCRF-CEM 19.7 µM | DU-145 > 100 µM | OVCAR-3 > 100 µM | EKVX > 100 µM | RPMI-8226 > 100 µM | NCI/ADR-RES > 100 µM | T47D > 100 µM | HOP-92 > 100 µM | HCT-116 96.8 µM | SNB-19 > 100 µM | HL-60 60.1 µM | HOP-62 > 100 µM | A498 > 100 µM | SR > 100 µM | SF-268 > 100 µM

CC(C(=O)n1ccnc1)N1c2ccccc2Sc2ccccc21 (centres undefined)
inactive: MOLT-4 43 µM | 786-0 59.2 µM | CCRF-CEM 84.7 µM | DU-145 > 100 µM | OVCAR-3 38.5 µM | EKVX 88.3 µM | RPMI-8226 65.3 µM | NCI/ADR-RES 63.2 µM | UACC-257 79.4 µM | T47D 39.5 µM | HOP-92 25.1 µM | HCT-116 > 100 µM | SNB-19 > 100 µM | HL-60 91.8 µM | HOP-62 67.5 µM | A498 47.2 µM | SR 50.1 µM | SF-268 98.2 µM

O=C1/C(=C/c2ccccc2S)N=C(c2ccccc2)N1c1ccc2c(c1)Sc1cc(N3C(=O)/C(=C/c4ccccc4S)N=C3c3ccccc3)ccc1N2
inactive: MOLT-4 19.6 µM | 786-0 22.9 µM | CCRF-CEM 15.2 µM | DU-145 19.2 µM | OVCAR-3 18.8 µM | EKVX 20.7 µM | RPMI-8226 19 µM | NCI/ADR-RES 35.5 µM | UACC-257 20.4 µM | T47D 22.7 µM | HOP-92 14.9 µM | HCT-116 21.3 µM | SNB-19 16.7 µM | HCC 2998 20.5 µM | HOP-62 25.6 µM | A498 19.1 µM | SR 15.7 µM | SF-268 19.5 µM

c1ncc(C23C4C5C6C4C2C6C53)[nH]1 (centres undefined)
inactive: MOLT-4 > 100 µM | 786-0 > 100 µM | CCRF-CEM > 100 µM | DU-145 > 100 µM | OVCAR-3 > 100 µM | EKVX > 100 µM | RPMI-8226 > 100 µM | NCI/ADR-RES > 100 µM | UACC-257 > 100 µM | T47D > 100 µM | HOP-92 > 100 µM | HCT-116 > 100 µM | SNB-19 > 100 µM | HL-60 > 100 µM | HCC 2998 > 100 µM | HOP-62 > 100 µM | A498 > 100 µM | SR > 100 µM | SF-268 > 100 µM

CN1CCc2c([nH]c3ccccc23)C1
inactive: MOLT-4 > 100 µM | NCI-H522 > 100 µM | 786-0 > 100 µM | CCRF-CEM > 100 µM | DU-145 > 100 µM | OVCAR-3 > 100 µM | EKVX > 100 µM | RPMI-8226 > 100 µM | NCI/ADR-RES > 100 µM | UACC-257 > 100 µM | T47D > 100 µM | HCT-116 > 100 µM | SNB-19 > 100 µM | HL-60 > 100 µM | HCC 2998 > 100 µM | HOP-62 > 100 µM | SR > 100 µM | SF-268 > 100 µM

Cc1cc2c(c(/C=N/c3ccccc3O)c1)OC1(C=C2)Oc2ccccc2C(=O)N1C (centres undefined)
inactive: MOLT-4 13.5 µM | 786-0 14.4 µM | CCRF-CEM 17.1 µM | DU-145 14.9 µM | OVCAR-3 12.8 µM | EKVX 14 µM | RPMI-8226 21.2 µM | NCI/ADR-RES 17.3 µM | UACC-257 14.1 µM | T47D 1.57 µM | HOP-92 11.8 µM | HCT-116 14.3 µM | SNB-19 24.7 µM | HL-60 27 µM | HCC 2998 15.8 µM | HOP-62 18.8 µM | A498 18.6 µM | SR 15.8 µM | SF-268 14.4 µM
